Legend:
[1] = system: panel of 20 taste testers; experiment: Sensory testing for salt enhancement (taste panel, sodium chloride solution); format: in vivo; parameters: key to Difference (salt enhancement effect relative to the same salt solution without the enhancer): None: No effect; +: Weak; ++: Moderate; +++: Strong
Protocol: Compounds 101 and 130 were evaluated for their salt-enhancement effects by a panel of 20 taste testers. The test compounds were added to solutions (0.25 wt %) sodium chloride, and tested for their sale enhancement effect relative to the same salt solution without the enhancer.

[2] = Sensory testing for cooling/burning (tasting of compound in water solution); format: in vivo; settings: for taste attributes: 20 mg/L in water solution
Protocol: At 2 mg/L, Compound 130 was tasteless.
At 39.2 mg/L, the tingling effect was weak. […] At 2 mg/L, Compound 101 was tasteless.

[3] = 10 ppm test compound in 0.25 wt % sodium chloride solution
[4] = 20 ppm test compound in 0.25 wt % sodium chloride solution

Row | Compound | Difference (salt enhancement effect relative to the same salt solution without the enhancer) [1, 3] | Remarks (salt enhancement effect) [1, 3] | Difference (salt enhancement effect relative to the same salt solution without the enhancer) [1, 4] | Remarks (salt enhancement effect) [1, 4] | taste description ([2]; 2 mg/L in water solution) | taste attributes [2] | tingling effect ([2]; 39.2 mg/L in water solution) | taste description ([2]; 125 mg/L in water solution) | taste description ([2]; 42 mg/L in water solution)
1 | C#CC#CCCCCC(=O)N1CCCCC1 [Compound 101, nona-6,8-diynoic acid piperidide] | None | No effect | + | Weak | tasteless | astringent, bitter, herbal, earthy and green | weak | tingling (mid intensity), bitter, metallic, astringent and triggered an uncomfortable feeling in the throat when swallowed | 
2 | C#CC#CCC/C=C/C=C/C(=O)N1CCCCC1 [Compound 130, (E,E)-2,4-undecadien-8,10-diynoic acid piperidide] | ++ | Moderate | ++ | Moderate | tasteless | astringent, bitter, salty, earthy, herbal, and cooling, but no warm and hot sensation was perceived |  |  | long-lasting warm, hot, weak cooling after taste, as well as bitter and astringent
